Laboratory results published in patent US20260159512A1, “BCAT2 INHIBITORS” (AGIOS PHARMACEUTICALS, INC., priority 2021, published 2026).

Assays:
Conditions in all cases: average where tested multiple times
[1] = biological target: T1, BCAT2 (Homo sapiens, UniProt O15382); assay: BCAT2 in vitro cell inhibition using engineered A549 cells (KMV cell assay, 13C6-KMV by LC-MS/MS); format: cell-based; design: The result was an engineered A549 cell line that expressed endogenous BCAT2; endogenous in cells; host or cells: A549 cells with MUT and BCAT1 knocked out by CRISPR/CAS9; key to BCAT2 Cell Inhibition: A: less than or equal to 0.100 μM; B: greater than 0.100 and less than or equal to 0.500 μM; C: greater than 0.500 and less than or equal to 1.000 μM; d: greater than 1.000 μM; E: no fit
T1 sequence (O15382 28-392): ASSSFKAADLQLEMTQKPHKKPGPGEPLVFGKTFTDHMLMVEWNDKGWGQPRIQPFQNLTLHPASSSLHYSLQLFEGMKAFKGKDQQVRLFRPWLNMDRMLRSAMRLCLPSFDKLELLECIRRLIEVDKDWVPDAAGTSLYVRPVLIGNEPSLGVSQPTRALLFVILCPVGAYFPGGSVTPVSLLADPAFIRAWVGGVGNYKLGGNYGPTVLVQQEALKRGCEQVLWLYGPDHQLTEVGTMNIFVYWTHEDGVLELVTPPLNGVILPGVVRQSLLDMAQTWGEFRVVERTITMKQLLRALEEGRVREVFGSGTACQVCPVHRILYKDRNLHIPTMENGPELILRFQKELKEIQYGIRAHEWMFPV

[2] = biological target: T2, hBCAT1 (Homo sapiens, UniProt P54687); assay: BCAT1 in vitro enzyme inhibition assay (resazurin/diaphorase-coupled fluorescence); format: biochemical
T2 sequence (P54687 1-386): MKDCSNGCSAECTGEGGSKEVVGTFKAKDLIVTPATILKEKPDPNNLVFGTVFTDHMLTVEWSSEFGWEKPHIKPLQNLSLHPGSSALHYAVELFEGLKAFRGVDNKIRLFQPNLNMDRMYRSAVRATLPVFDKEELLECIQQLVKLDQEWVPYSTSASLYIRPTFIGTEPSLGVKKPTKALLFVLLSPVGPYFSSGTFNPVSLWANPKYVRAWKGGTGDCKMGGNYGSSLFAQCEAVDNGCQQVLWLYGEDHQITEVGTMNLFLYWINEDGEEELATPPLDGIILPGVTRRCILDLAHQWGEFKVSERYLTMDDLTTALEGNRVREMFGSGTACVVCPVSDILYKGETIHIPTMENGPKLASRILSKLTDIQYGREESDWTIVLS
How it was run: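 Ten-point, 3-fold compound series (top final 100 μM, delivered 1:50 from 50× DMSO stocks) tested against hBCAT1. Inhibition detected via diaphorase-coupled resazurin fluorescence, duplicate wells, with values from repeated runs averaged.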

[3] = biological target: T1, BCAT2; assay: BCAT2 in vitro enzyme inhibition assay (resazurin/diaphorase-coupled fluorescence); format: biochemical
How it was run: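 Coupled fluorescence readout: glutamate formed from L-leucine/α-ketoglutarate transamination drives GDH/NAD/diaphorase reduction of resazurin (Ex 540/Em 590). Human BCAT2 was first exposed 1 h at room temperature to compound, top final 100 μM in 3-fold, 10-point series; substrate reaction ran 1 h before SDS quench, in technical duplicate with DMSO max and enzyme-free min controls.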

| Compound | IC50 [1] | IC50 [2] | IC50 [3] | BCAT2 Cell Inhibition [1] |
| --- | --- | --- | --- | --- |
| O=C(N[C@H]1CCC[C@@H](n2c(OCC(F)(F)F)nc3cnc(-n4nccn4)cc32)C1)c1ncc(Cl)s1 [Example 101, N-((1S,3R)-3-(6-(2H-1,2,3-triazol-2-yl)-2-(2,2,2-trifluoroethoxy)-1H-imidazo[4,5-c]pyridin-1-yl)cyclohexyl)-5-chlorothiazole-2-carboxamide] | > 1000 nM | > 5000 nM | 100 to 500 nM |  |
| O=C(N[C@H]1CCC[C@@H](n2c(-c3ccccn3)nc3cnc(-n4ccnn4)cc32)C1)c1ncc(C(F)F)s1 [Example 34, 5-(difluoromethyl)-N-((1S,3R)-3-(2-(pyridin-2-yl)-6-(1H-1,2,3-triazol-1-yl)-1H-imidazo[4,5-c]pyridin-1-yl)cyclohexyl)thiazole-2-carboxamide] |  | > 5000 nM | 100 to 500 nM | E |
| CO[C@H]1C[C@@H](NC(=O)c2ncc(Cl)s2)C[C@@H](n2c(CC(C)C)nc3cnc(-c4nc[nH]n4)cc32)C1 (stereo in doubt) [Example 432, 5-chloro-N-((1S,3R,5S)-3-(2-isobutyl-6-(1H-1,2,4-triazol-3-yl)-1H-imidazo[4,5-c]pyridin-1-yl)-5-methoxycyclohexyl)thiazole-2-carboxamide] | ≤ 100 nM | < 500 nM | ≤ 100 nM |  |
| CC(C)Cc1nc2cnc(-c3nc4ccccc4o3)cc2n1[C@@H]1CCC[C@H](NC(=O)c2ncc(Cl)s2)C1 [Example 324, N-((1S,3R)-3-(6-(benzo[d]oxazol-2-yl)-2-isobutyl-1H-imidazo[4,5-c]pyridin-1-yl)cyclohexyl)-5-chlorothiazole-2-carboxamide] | 100 to 500 nM | 1000 to 5000 nM | ≤ 100 nM |  |
| O=C(N[C@H]1CCC[C@@H](n2c(-c3ccccn3)nc3cnc(-c4nn[nH]n4)cc32)C1)c1ncc(C(F)F)s1 [Example 50, 5-(difluoromethyl)-N-((1S,3R)-3-(2-(pyridin-2-yl)-6-(2H-tetrazol-5-yl)-1H-imidazo[4,5-c]pyridin-1-yl)cyclohexyl)thiazole-2-carboxamide] |  | < 500 nM | ≤ 100 nM | E |
| O=C(N[C@H]1CCC[C@@H](n2c(-c3c(O)cccc3F)nc3cnc(-c4nc[nH]n4)cc32)C1)c1ncc(Cl)s1 [Example 339, 5-chloro-N-((1S,3R)-3-(2-(2-fluoro-6-hydroxyphenyl)-6-(1H-1,2,4-triazol-3-yl)-1H-imidazo[4,5-c]pyridin-1-yl)cyclohexyl)thiazole-2-carboxamide] | ≤ 100 nM | < 500 nM | ≤ 100 nM |  |
| Cc1nc(-c2cc3c(cn2)nc(CC(C)C)n3[C@@H]2CCC[C@H](NC(=O)c3ncc(Cl)s3)C2)cs1 [Example 158, 5-chloro-N-((1S,3R)-3-(2-isobutyl-6-(2-methylthiazol-4-yl)-1H-imidazo[4,5-c]pyridin-1-yl)cyclohexyl)thiazole-2-carboxamide] | > 1000 nM | 1000 to 5000 nM | ≤ 100 nM |  |
| CC(C)Cc1nc2cnc(-c3ccn[nH]3)cc2n1[C@@H]1CCC[C@H](NC(=O)c2ncc(Cl)s2)[C@H]1O [Example 225, 5-chloro-N-((1S,2R,3R)-2-hydroxy-3-(2-isobutyl-6-(1H-pyrazol-5-yl)-1H-imidazo[4,5-c]pyridin-1-yl)cyclohexyl)thiazole-2-carboxamide] | 100 to 500 nM | < 500 nM | ≤ 100 nM |  |
| CC(C)Cc1nc2cnc(-c3nc[nH]n3)cc2n1[C@@H]1CCC[C@H](NC(=O)c2ccc(Cl)s2)C1 [Example 317, 5-chloro-N-((1S,3R)-3-(2-isobutyl-6-(1H-1,2,4-triazol-3-yl)-1H-imidazo[4,5-c]pyridin-1-yl)cyclohexyl)thiophene-2-carboxamide] | ≤ 100 nM | < 500 nM | ≤ 100 nM |  |
| O=C(N[C@H]1CCC[C@@H](n2c(-c3ccccc3F)nc3cnc(-n4ccnn4)cc32)C1)c1ncc(C(F)F)s1 [Example 38, 5-(difluoromethyl)-N-((1S,3R)-3-(2-(2-fluorophenyl)-6-(1H-1,2,3-triazol-1-yl)-1H-imidazo[4,5-c]pyridin-1-yl)cyclohexyl)thiazole-2-carboxamide] | 100 to 500 nM | 1000 to 5000 nM | ≤ 100 nM |  |
| CC(C)Cc1nc2cnc(-c3ccccn3)cc2n1[C@@H]1C[C@@H](O)C[C@H](NC(=O)c2ncc(Cl)s2)C1 (single isomer, unassigned) [Example 214] | ≤ 100 nM | < 500 nM | ≤ 100 nM |  |
| CC(C)Cc1nc2cnc(-n3cc(F)cn3)cc2n1[C@@H]1C[C@@H](O)C[C@H](NC(=O)c2ncc(Cl)s2)C1 [Example 221, 5-chloro-N-((1R,3S,5S)-3-(6-(4-fluoro-1H-pyrazol-1-yl)-2-isobutyl-1H-imidazo[4,5-c]pyridin-1-yl)-5-hydroxycyclohexyl)thiazole-2-carboxamide] | 100 to 500 nM | < 500 nM | ≤ 100 nM |  |
| O=C(NC1COCC(n2c(-c3ccccc3F)nc3cnc(-n4nccn4)cc32)C1)c1ncc(C(F)F)s1 (single isomer, unassigned) [Example 142, 5-(difluoromethyl)-N-(5-(2-(2-fluorophenyl)-6-(2H-1,2,3-triazol-2-yl)-1H-imidazo[4,5-c]pyridin-1-yl)tetrahydro-2H-pyran-3-yl)thiazole-2-carboxamide] | ≤ 100 nM | < 500 nM | ≤ 100 nM |  |

Next, values leading:

| IC50 [1] | IC50 [2] | IC50 [3] | BCAT2 Cell Inhibition [1] | Compound |
| --- | --- | --- | --- | --- |
| ≤ 100 nM | < 500 nM | ≤ 100 nM |  | O=C(N[C@H]1CCC[C@@H](n2c(-c3ncccc3F)nc3cnc(-n4nccn4)cc32)C1)c1ccc(Br)s1 [Example 13, 5-bromo-N-((1S,3R)-3-(2-(3-fluoropyridin-2-yl)-6-(2H-1,2,3-triazol-2-yl)-1H-imidazo[4,5-c]pyridin-1-yl)cyclohexyl)thiophene-2-carboxamide] |
| ≤ 100 nM | < 500 nM | ≤ 100 nM |  | CC(=O)N1CC(NC(=O)c2ncc(C(F)F)s2)CC(n2c(-c3ccccc3F)nc3cnc(-c4ncco4)cc32)C1 (stereo not drawn) [Example 126, N-(1-acetyl-5-(2-(2-fluorophenyl)-6-(oxazol-2-yl)-1H-imidazo[4,5-c]pyridin-1-yl)piperidin-3-yl)-5-(difluoromethyl)thiazole-2-carboxamide] |
| ≤ 100 nM | < 500 nM | ≤ 100 nM |  | CC(C)Cc1nc2cnc(-n3nccn3)cc2n1[C@@H]1C[C@@H](O)C[C@H](NC(=O)c2ccc(Cl)s2)C1 (single isomer, unassigned) [Example 395] |
| 100 to 500 nM | < 500 nM | ≤ 100 nM |  | O=C(N[C@H]1CCC[C@@H](n2c(-c3ncccc3F)nc3cnc(-n4ccnn4)cc32)C1)c1ccc(Br)s1 [Example 12, 5-bromo-N-((1S,3R)-3-(2-(3-fluoropyridin-2-yl)-6-(1H-1,2,3-triazol-1-yl)-1H-imidazo[4,5-c]pyridin-1-yl)cyclohexyl)thiophene-2-carboxamide] |
| ≤ 100 nM | < 500 nM | ≤ 100 nM |  | O=C(N[C@H]1CCC[C@@H](n2c(-c3ccccn3)nc3cnc(-n4nccn4)cc32)C1)c1ccc(Br)s1 [Example 11, 5-bromo-N-((1S,3R)-3-(2-(pyridin-2-yl)-6-(2H-1,2,3-triazol-2-yl)-1H-imidazo[4,5-c]pyridin-1-yl)cyclohexyl)thiophene-2-carboxamide] |
| ≤ 100 nM | < 500 nM | ≤ 100 nM |  | CC(C)Cc1nc2cnc(-c3ccccn3)cc2n1[C@@H]1CCC[C@H](NC(=O)c2ncc(Cl)s2)[C@H]1O [Example 235, 5-chloro-N-((1S,2R,3R)-2-hydroxy-3-(2-isobutyl-6-(pyridin-2-yl)-1H-imidazo[4,5-c]pyridin-1-yl)cyclohexyl)thiazole-2-carboxamide] |
| ≤ 100 nM | < 500 nM | ≤ 100 nM |  | O=C(N[C@H]1CCC[C@@H](n2c(-c3ncccc3F)nc3cnc(-c4cc[nH]n4)cc32)C1)c1ncc(C(F)F)s1 [Example 55, 5-(difluoromethyl)-N-((1S,3R)-3-(2-(3-fluoropyridin-2-yl)-6-(1H-pyrazol-3-yl)-1H-imidazo[4,5-c]pyridin-1-yl)cyclohexyl)thiazole-2-carboxamide] |
